Source: PMC4020173 (Bioorganic & medicinal chemistry, 2014)
Entries after “also recorded” stand apart in the source; their conditions may differ.

What was measured:
[1] = tested on: MDA-MB-436 human breast cancer xenograft tumors; experiment: MicroPET imaging with [^18F]12 in MDA-MB-436 tumor-bearing mice; format: in vivo; details: MDA-MB-436 tumors in mice; olaparib 50 mg/kg i.p. or 12 1 mg/kg i.p., 20 min prior to tracer injection
MDA-MB-231 tumors = experiment: MicroPET imaging with [^18F]12 in MDA-MB-231 tumor-bearing mice; format: in vivo; details: MDA-MB-231 tumor in mice; olaparib i.p. 50 mg/kg 20 min pretreatment; time-radioactivity curves

SMILES	Effect of pretreatment on [^18F]12 uptake in tumor (blocking) [1]	Effect of pretreatment on [^18F]12 uptake in tumor (blocking) (MDA-MB-231 tumors)
O=C(c1cc(Cc2n[nH]c(=O)c3ccccc23)ccc1F)N1CCN(C(=O)C2CC2)CC1 [olaparib]	blocked; also recorded: decreased [^18F]12 uptake in the tumors to the background tissue activity levels	decreased [^18F]12 uptake
O=C1NCCn2c(-c3ccc(OCCF)cc3)nc3cccc1c32 [Compound 12, 5,6-Dihydro-2-(4-(2-fluoroethoxy)phenyl)-imidazo[4,5,1-jk][1,4]benzodiazepin-7(4H)-ones]	decreased [^18F]12 uptake in the tumors to the background tissue activity levels; also recorded: blocked	–
